PubChem BioAssay (NCI)
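Values below derive from 48-hour exposures of cells grown in 96-well plates, with endpoints linearly interpolated between the two concentrations bracketing the appropriate inhibition level. TGI: concentration producing complete growth inhibition.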

Key:
Experiment in all cases: growth of human tumour cells (NCI), 48 h
786-0 renal = test system: 786-0 renal
A498 renal = test system: A498 renal
A549 NSCLC = test system: A549 NSCLC
ACHN renal = test system: ACHN renal
CAKI-1 renal = test system: CAKI-1 renal
CCRF-CEM leukemia = test system: CCRF-CEM leukemia
COLO 205 colon = test system: COLO 205 colon
DLD-1 colon = test system: DLD-1 colon
DMS 114 small cell lung = test system: DMS 114 small cell lung
DMS 273 small cell lung = test system: DMS 273 small cell lung
EKVX NSCLC = test system: EKVX NSCLC
HCC-2998 colon = test system: HCC-2998 colon
HCT-116 colon = test system: HCT-116 colon
HCT-15 colon = test system: HCT-15 colon
HL-60(TB) leukemia = test system: HL-60(TB) leukemia
HOP-18 NSCLC = test system: HOP-18 NSCLC
HOP-62 NSCLC = test system: HOP-62 NSCLC
HOP-92 NSCLC = test system: HOP-92 NSCLC
HT29 colon = test system: HT29 colon
IGROV1 ovarian = test system: IGROV1 ovarian
K-562 leukemia = test system: K-562 leukemia
KM12 colon = test system: KM12 colon
KM20L2 colon = test system: KM20L2 colon
LOX IMVI melanoma = test system: LOX IMVI melanoma
LXFL 529 NSCLC = test system: LXFL 529 NSCLC
M14 melanoma = test system: M14 melanoma
MALME-3M melanoma = test system: MALME-3M melanoma
MOLT-4 leukemia = test system: MOLT-4 leukemia
NCI-H226 lung = test system: NCI-H226 lung
NCI-H23 lung = test system: NCI-H23 lung
NCI-H460 lung = test system: NCI-H460 lung
NCI-H522 lung = test system: NCI-H522 lung
OVCAR-3 ovarian = test system: OVCAR-3 ovarian
OVCAR-5 ovarian = test system: OVCAR-5 ovarian
OVCAR-8 ovarian = test system: OVCAR-8 ovarian
RPMI-8226 leukemia = test system: RPMI-8226 leukemia
RXF 393 renal = test system: RXF 393 renal
RXF-631 renal = test system: RXF-631 renal
SF-268 CNS = test system: SF-268 CNS
SF-295 CNS = test system: SF-295 CNS
SF-539 CNS = test system: SF-539 CNS
SK-MEL-2 melanoma = test system: SK-MEL-2 melanoma
SK-MEL-28 melanoma = test system: SK-MEL-28 melanoma
SK-MEL-5 melanoma = test system: SK-MEL-5 melanoma
SK-OV-3 ovarian = test system: SK-OV-3 ovarian
SN12C renal = test system: SN12C renal
SNB-19 CNS = test system: SNB-19 CNS
SNB-75 CNS = test system: SNB-75 CNS
SNB-78 CNS = test system: SNB-78 CNS
SR leukemia = test system: SR leukemia
SW-620 colon = test system: SW-620 colon
TK-10 renal = test system: TK-10 renal
U251 CNS = test system: U251 CNS
UACC-257 melanoma = test system: UACC-257 melanoma
UACC-62 melanoma = test system: UACC-62 melanoma
UO-31 renal = test system: UO-31 renal
XF 498 CNS = test system: XF 498 CNS
M19-MEL melanoma = test system: M19-MEL melanoma
OVCAR-4 ovarian = test system: OVCAR-4 ovarian

For NC(=O)OCC(COc1ccc(Cl)cc1)OC(=O)c1cc([N+](=O)[O-])cc([N+](=O)[O-])c1 (stereo not drawn), the TGI (786-0 renal) was greater than 100 µM, the TGI (A498 renal) was greater than 100 µM and the TGI (A549 NSCLC) was greater than 100 µM. It also gave a TGI (ACHN renal) greater than 100 µM, a TGI (CAKI-1 renal) greater than 100 µM and a TGI (CCRF-CEM leukemia) greater than 100 µM. The TGI (COLO 205 colon) was greater than 100 µM, the TGI (DLD-1 colon) was greater than 100 µM and the TGI (DMS 114 small cell lung) was 53.8 µM. It also gave a TGI (DMS 273 small cell lung) greater than 100 µM, a TGI (EKVX NSCLC) greater than 100 µM and a TGI (HCC-2998 colon) greater than 100 µM. For the same compound, the TGI (HCT-116 colon) was greater than 100 µM, the TGI (HCT-15 colon) was greater than 100 µM and the TGI (HL-60(TB) leukemia) was greater than 100 µM. It also gave a TGI (HOP-18 NSCLC) greater than 100 µM, a TGI (HOP-62 NSCLC) greater than 100 µM and a TGI (HOP-92 NSCLC) greater than 100 µM. The TGI (HT29 colon) was greater than 100 µM, the TGI (IGROV1 ovarian) was greater than 100 µM and the TGI (K-562 leukemia) was greater than 100 µM. For the same compound, the TGI (KM12 colon) was greater than 100 µM, the TGI (KM20L2 colon) was greater than 100 µM and the TGI (LOX IMVI melanoma) was 34.4 µM. For the same compound, the TGI (LXFL 529 NSCLC) was greater than 100 µM, the TGI (M14 melanoma) was greater than 100 µM and the TGI (MALME-3M melanoma) was greater than 100 µM. It also gave a TGI (MOLT-4 leukemia) greater than 100 µM, a TGI (NCI-H226 lung) greater than 100 µM and a TGI (NCI-H23 lung) greater than 100 µM. It also gave a TGI (NCI-H460 lung) greater than 100 µM, a TGI (NCI-H522 lung) greater than 100 µM and a TGI (OVCAR-3 ovarian) greater than 100 µM. It also gave a TGI (OVCAR-5 ovarian) greater than 100 µM, a TGI (OVCAR-8 ovarian) greater than 100 µM and a TGI (RPMI-8226 leukemia) greater than 100 µM. For the same compound, the TGI (RXF 393 renal) was greater than 100 µM, the TGI (RXF-631 renal) was greater than 100 µM and the TGI (SF-268 CNS) was greater than 100 µM. The TGI (SF-295 CNS) was greater than 100 µM, the TGI (SF-539 CNS) was greater than 100 µM and the TGI (SK-MEL-2 melanoma) was greater than 100 µM. The TGI (SK-MEL-28 melanoma) was greater than 100 µM, the TGI (SK-MEL-5 melanoma) was greater than 100 µM and the TGI (SK-OV-3 ovarian) was greater than 100 µM. The TGI (SN12C renal) was greater than 100 µM, the TGI (SNB-19 CNS) was greater than 100 µM and the TGI (SNB-75 CNS) was greater than 100 µM. For the same compound, the TGI (SNB-78 CNS) was greater than 100 µM, the TGI (SR leukemia) was greater than 100 µM and the TGI (SW-620 colon) was 27.6 µM. The TGI (TK-10 renal) was greater than 100 µM, the TGI (U251 CNS) was greater than 100 µM and the TGI (UACC-257 melanoma) was greater than 100 µM. The TGI (UACC-62 melanoma) was greater than 100 µM, the TGI (UO-31 renal) was greater than 100 µM and the TGI (XF 498 CNS) was greater than 100 µM.

O=C(CC(=O)c1cccc([N+](=O)[O-])c1)C(=O)Nc1nc([N+](=O)[O-])cs1 was tested, and the TGI (786-0 renal) was greater than 100 µM, the TGI (A498 renal) was greater than 100 µM and the TGI (A549 NSCLC) was greater than 100 µM. It also gave a TGI (CAKI-1 renal) greater than 100 µM, a TGI (CCRF-CEM leukemia) greater than 100 µM and a TGI (COLO 205 colon) greater than 100 µM. For the same compound, the TGI (DLD-1 colon) was greater than 100 µM, the TGI (DMS 114 small cell lung) was greater than 100 µM and the TGI (DMS 273 small cell lung) was greater than 100 µM. The TGI (EKVX NSCLC) was greater than 100 µM, the TGI (HCC-2998 colon) was greater than 100 µM and the TGI (HCT-116 colon) was greater than 100 µM. The TGI (HCT-15 colon) was greater than 100 µM, the TGI (HL-60(TB) leukemia) was greater than 100 µM and the TGI (HOP-18 NSCLC) was greater than 100 µM. For the same compound, the TGI (HOP-62 NSCLC) was greater than 100 µM, the TGI (HOP-92 NSCLC) was greater than 100 µM and the TGI (HT29 colon) was greater than 100 µM. It also gave a TGI (IGROV1 ovarian) greater than 100 µM, a TGI (K-562 leukemia) greater than 100 µM and a TGI (KM12 colon) greater than 100 µM. It also gave a TGI (KM20L2 colon) greater than 100 µM, a TGI (LOX IMVI melanoma) greater than 100 µM and a TGI (LXFL 529 NSCLC) greater than 100 µM. It also gave a TGI (M14 melanoma) greater than 100 µM, a TGI (M19-MEL melanoma) greater than 100 µM and a TGI (MALME-3M melanoma) greater than 100 µM. For the same compound, the TGI (MOLT-4 leukemia) was greater than 100 µM, the TGI (NCI-H226 lung) was greater than 100 µM and the TGI (NCI-H23 lung) was greater than 100 µM. The TGI (NCI-H460 lung) was greater than 100 µM, the TGI (NCI-H522 lung) was greater than 100 µM and the TGI (OVCAR-3 ovarian) was greater than 100 µM. It also gave a TGI (OVCAR-4 ovarian) greater than 100 µM, a TGI (OVCAR-5 ovarian) greater than 100 µM and a TGI (OVCAR-8 ovarian) greater than 100 µM. It also gave a TGI (RPMI-8226 leukemia) greater than 100 µM, a TGI (RXF 393 renal) greater than 100 µM and a TGI (RXF-631 renal) greater than 100 µM. The TGI (SF-268 CNS) was greater than 100 µM, the TGI (SF-295 CNS) was greater than 100 µM and the TGI (SF-539 CNS) was greater than 100 µM. For the same compound, the TGI (SK-MEL-2 melanoma) was greater than 100 µM, the TGI (SK-MEL-28 melanoma) was greater than 100 µM and the TGI (SK-MEL-5 melanoma) was greater than 100 µM. The TGI (SK-OV-3 ovarian) was greater than 100 µM, the TGI (SN12C renal) was greater than 100 µM and the TGI (SNB-19 CNS) was greater than 100 µM. It also gave a TGI (SNB-78 CNS) greater than 100 µM, a TGI (SR leukemia) greater than 100 µM and a TGI (SW-620 colon) greater than 100 µM. It also gave a TGI (TK-10 renal) greater than 100 µM, a TGI (U251 CNS) greater than 100 µM and a TGI (UACC-257 melanoma) greater than 100 µM. It also gave a TGI (UACC-62 melanoma) greater than 100 µM and a TGI (UO-31 renal) greater than 100 µM.

Work on COC(=O)C1=C(C)N(NC(=O)c2cccc(Cl)c2)C(C)(O)C12CCOC2=O (stereo not drawn) yielded a TGI (786-0 renal) greater than 100 µM, a TGI (A498 renal) greater than 100 µM and a TGI (A549 NSCLC) greater than 100 µM. It also gave a TGI (ACHN renal) greater than 100 µM, a TGI (CAKI-1 renal) greater than 100 µM and a TGI (DMS 114 small cell lung) greater than 100 µM. For the same compound, the TGI (DMS 273 small cell lung) was greater than 100 µM, the TGI (EKVX NSCLC) was greater than 100 µM and the TGI (HCC-2998 colon) was greater than 100 µM. For the same compound, the TGI (HCT-116 colon) was greater than 100 µM, the TGI (HCT-15 colon) was greater than 100 µM and the TGI (HOP-62 NSCLC) was greater than 100 µM. It also gave a TGI (HT29 colon) greater than 100 µM, a TGI (IGROV1 ovarian) greater than 100 µM and a TGI (K-562 leukemia) greater than 100 µM. The TGI (KM12 colon) was greater than 100 µM, the TGI (KM20L2 colon) was greater than 100 µM and the TGI (LOX IMVI melanoma) was greater than 100 µM. The TGI (LXFL 529 NSCLC) was greater than 100 µM, the TGI (M14 melanoma) was greater than 100 µM and the TGI (M19-MEL melanoma) was greater than 100 µM. For the same compound, the TGI (MALME-3M melanoma) was greater than 100 µM, the TGI (MOLT-4 leukemia) was greater than 100 µM and the TGI (NCI-H226 lung) was greater than 100 µM. For the same compound, the TGI (NCI-H460 lung) was greater than 100 µM, the TGI (NCI-H522 lung) was greater than 100 µM and the TGI (OVCAR-3 ovarian) was greater than 100 µM. The TGI (OVCAR-4 ovarian) was greater than 100 µM, the TGI (OVCAR-5 ovarian) was greater than 100 µM and the TGI (OVCAR-8 ovarian) was greater than 100 µM. The TGI (RPMI-8226 leukemia) was greater than 100 µM, the TGI (RXF-631 renal) was greater than 100 µM and the TGI (SF-268 CNS) was greater than 100 µM. For the same compound, the TGI (SF-295 CNS) was greater than 100 µM, the TGI (SF-539 CNS) was greater than 100 µM and the TGI (SK-MEL-2 melanoma) was greater than 100 µM. For the same compound, the TGI (SK-MEL-28 melanoma) was greater than 100 µM, the TGI (SK-MEL-5 melanoma) was greater than 100 µM and the TGI (SK-OV-3 ovarian) was greater than 100 µM. For the same compound, the TGI (SN12C renal) was greater than 100 µM, the TGI (SNB-19 CNS) was greater than 100 µM and the TGI (SNB-75 CNS) was greater than 100 µM. The TGI (SNB-78 CNS) was greater than 100 µM, the TGI (SR leukemia) was greater than 100 µM and the TGI (SW-620 colon) was greater than 100 µM. The TGI (U251 CNS) was greater than 100 µM, the TGI (UACC-257 melanoma) was greater than 100 µM and the TGI (UACC-62 melanoma) was greater than 100 µM. It also gave a TGI (UO-31 renal) greater than 100 µM and a TGI (XF 498 CNS) greater than 100 µM.
